Measurements published in ChEMBL document CHEMBL1201862, “PubChem BioAssay data set” (2004).
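In this assay, cells in 96-well plates receive the compound at five concentrations for 48 hours. Endpoints are linearly interpolated between the surrounding concentrations. GI50: concentration for 50% inhibition of growth.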 Calls of active or inactive are those of the source. No stated cut-off is given here; in the data, active = GI50 up to about 1.1 µM and inactive = higher.

Experiments:
Test in all cases: NCI anticancer screen, dose series, 48 h
A498 = system: A498
ACHN = system: ACHN
COLO 205 = system: COLO 205
HL-60 = system: HL-60
IGROV-1 = system: IGROV-1
LOX IMVI = system: LOX IMVI
M14 = system: M14
NCI-H226 = system: NCI-H226
OVCAR-4 = system: OVCAR-4
OVCAR-5 = system: OVCAR-5
SF-539 = system: SF-539
SK-MEL-28 = system: SK-MEL-28
SK-MEL-2 = system: SK-MEL-2
SK-OV-3 = system: SK-OV-3
SN12C = system: SN12C
SR = system: SR
UACC-62 = system: UACC-62
MDA-MB-435 = system: MDA-MB-435
T47D = system: T47D
PC-3 = system: PC-3

Row | Structure (SMILES) | GI50 (A498) | GI50 (ACHN) | GI50 (COLO 205) | GI50 (HL-60) | GI50 (IGROV-1) | GI50 (LOX IMVI) | GI50 (M14) | GI50 (NCI-H226) | GI50 (OVCAR-4) | GI50 (OVCAR-5) | GI50 (SF-539) | GI50 (SK-MEL-28) | GI50 (SK-MEL-2) | GI50 (SK-OV-3) | GI50 (SN12C) | GI50 (SR) | GI50 (UACC-62) | GI50 (MDA-MB-435) | GI50 (T47D) | GI50 (PC-3)
1 | COc1cc2c3c(c1OC)C(=O)C=C3N(S(=O)(=O)c1ccc(C)cc1)CC2 | > 100 µM (inactive) | 75.9 µM (inactive) | > 100 µM (inactive) | > 100 µM (inactive) | > 100 µM (inactive) | > 100 µM (inactive) | > 100 µM (inactive) | > 100 µM (inactive) | 65.8 µM (inactive) | > 100 µM (inactive) | 52.7 µM (inactive) | > 100 µM (inactive) | > 100 µM (inactive) | > 100 µM (inactive) | > 100 µM (inactive) | > 100 µM (inactive) | > 100 µM (inactive) | – | – | –
2 | COC1CC(COCc2ccccc2)CC(OC)O1 (configuration not stated) | > 100 µM (inactive) | > 100 µM (inactive) | > 100 µM (inactive) | < 0.01 µM (active) | – | 64 µM (inactive) | > 100 µM (inactive) | > 100 µM (inactive) | – | > 100 µM (inactive) | > 100 µM (inactive) | – | – | > 100 µM (inactive) | > 100 µM (inactive) | > 100 µM (inactive) | > 100 µM (inactive) | > 100 µM (inactive) | > 100 µM (inactive) | –
3 | C#CCSc1nc(N)c2ncn(C3OC(COP(=O)(O)O)C(O)C3O)c2n1 (configuration not stated) | > 239 µM (inactive) | > 239 µM (inactive) | > 239 µM (inactive) | > 239 µM (inactive) | > 239 µM (inactive) | > 239 µM (inactive) | > 239 µM (inactive) | > 239 µM (inactive) | > 239 µM (inactive) | > 239 µM (inactive) | > 239 µM (inactive) | > 239 µM (inactive) | > 239 µM (inactive) | > 239 µM (inactive) | > 239 µM (inactive) | > 239 µM (inactive) | > 239 µM (inactive) | – | – | –
4 | O=C(O)/C=C/n1c2ccccc2c(=O)c2ccccc21 | > 100 µM (inactive) | > 100 µM (inactive) | > 100 µM (inactive) | > 100 µM (inactive) | > 100 µM (inactive) | > 100 µM (inactive) | > 100 µM (inactive) | > 100 µM (inactive) | > 100 µM (inactive) | > 100 µM (inactive) | > 100 µM (inactive) | > 100 µM (inactive) | > 100 µM (inactive) | – | > 100 µM (inactive) | > 100 µM (inactive) | > 100 µM (inactive) | – | – | –
5 | NC(CCC(=O)NC(CSC(=O)N(O)c1ccccc1)C(=O)NCC(=O)O)C(=O)O (configuration not stated) | > 1000 µM (inactive) | > 1000 µM (inactive) | > 1000 µM (inactive) | > 1000 µM (inactive) | > 1000 µM (inactive) | > 1000 µM (inactive) | > 1000 µM (inactive) | > 1000 µM (inactive) | > 1000 µM (inactive) | > 1000 µM (inactive) | > 1000 µM (inactive) | > 1000 µM (inactive) | > 1000 µM (inactive) | > 1000 µM (inactive) | > 1000 µM (inactive) | > 1000 µM (inactive) | > 1000 µM (inactive) | – | – | –
6 | CCOc1ccc2nc(NC(=O)C(=O)C(C#N)CC(C)(C)C=O)sc2c1 (configuration not stated) | > 100 µM (inactive) | > 100 µM (inactive) | > 100 µM (inactive) | > 100 µM (inactive) | > 100 µM (inactive) | 44.2 µM (inactive) | > 100 µM (inactive) | > 100 µM (inactive) | > 100 µM (inactive) | > 100 µM (inactive) | 75.7 µM (inactive) | > 100 µM (inactive) | > 100 µM (inactive) | > 100 µM (inactive) | > 100 µM (inactive) | 21 µM (inactive) | > 100 µM (inactive) | – | – | –
7 | Cc1nc2c(Cl)cc(Cl)cc2c2c1CCO2 | 67.1 µM (inactive) | > 100 µM (inactive) | > 100 µM (inactive) | 65.3 µM (inactive) | > 100 µM (inactive) | > 100 µM (inactive) | > 100 µM (inactive) | > 100 µM (inactive) | > 100 µM (inactive) | > 100 µM (inactive) | > 100 µM (inactive) | > 100 µM (inactive) | > 100 µM (inactive) | – | > 100 µM (inactive) | > 100 µM (inactive) | > 100 µM (inactive) | > 100 µM (inactive) | > 100 µM (inactive) | –
8 | CC1CC(N2CCOCC2)=Nc2ccccc2N1C (configuration not stated) | > 100 µM (inactive) | > 100 µM (inactive) | > 100 µM (inactive) | > 100 µM (inactive) | > 100 µM (inactive) | – | > 100 µM (inactive) | > 100 µM (inactive) | > 100 µM (inactive) | > 100 µM (inactive) | > 100 µM (inactive) | > 100 µM (inactive) | > 100 µM (inactive) | > 100 µM (inactive) | > 100 µM (inactive) | – | > 100 µM (inactive) | > 100 µM (inactive) | – | > 100 µM (inactive)
9 | CC(=O)OI1NC(=O)c2ccccc21 | > 100 µM (inactive) | > 100 µM (inactive) | > 100 µM (inactive) | > 100 µM (inactive) | > 100 µM (inactive) | > 100 µM (inactive) | > 100 µM (inactive) | > 100 µM (inactive) | > 100 µM (inactive) | > 100 µM (inactive) | – | > 100 µM (inactive) | > 100 µM (inactive) | > 100 µM (inactive) | > 100 µM (inactive) | > 100 µM (inactive) | > 100 µM (inactive) | > 100 µM (inactive) | – | > 100 µM (inactive)
10 | N#CC(C#N)=c1c2ccccc2c(=C(C#N)C#N)c2ccccc12 | 23.8 µM (inactive) | 20 µM (inactive) | 21.2 µM (inactive) | 19.8 µM (inactive) | 12.8 µM (inactive) | 17.8 µM (inactive) | 17.4 µM (inactive) | 17.7 µM (inactive) | – | 20.9 µM (inactive) | – | 17.7 µM (inactive) | 17.1 µM (inactive) | 25.1 µM (inactive) | 16.6 µM (inactive) | – | 13.2 µM (inactive) | 18.4 µM (inactive) | – | 16.1 µM (inactive)
11 | CC(C)(C)C#COC(=O)c1ccccc1 | > 100 µM (inactive) | > 100 µM (inactive) | > 100 µM (inactive) | > 100 µM (inactive) | > 100 µM (inactive) | > 100 µM (inactive) | > 100 µM (inactive) | > 100 µM (inactive) | > 100 µM (inactive) | > 100 µM (inactive) | > 100 µM (inactive) | – | > 100 µM (inactive) | > 100 µM (inactive) | > 100 µM (inactive) | > 100 µM (inactive) | > 100 µM (inactive) | – | – | –
12 | O=C(CCCN1CCC(Nc2ccccc2)(c2nnnn2C2CCCCC2)CC1)c1ccc(F)cc1 | > 10 µM (inactive) | 4.58 µM (inactive) | 2.24 µM (inactive) | 4.73 µM (inactive) | 11.1 µM (inactive) | 3.81 µM (inactive) | 1.99 µM (inactive) | 17.9 µM (inactive) | 6.34 µM (inactive) | 7.23 µM (inactive) | 2.25 µM (inactive) | 3.79 µM (inactive) | 4.21 µM (inactive) | 13.3 µM (inactive) | 10.6 µM (inactive) | 6.67 µM (inactive) | 11.7 µM (inactive) | 6.62 µM (inactive) | – | 3.94 µM (inactive)
13 | Cc1cc(C)nc(NS(=O)(=O)c2ccc(Nc3c4ccccc4nc4c(C(=O)N5CCN(CCO)CC5)cccc34)cc2)n1 | > 100 µM (inactive) | > 100 µM (inactive) | > 100 µM (inactive) | > 100 µM (inactive) | > 100 µM (inactive) | > 100 µM (inactive) | > 100 µM (inactive) | > 100 µM (inactive) | > 100 µM (inactive) | > 100 µM (inactive) | > 100 µM (inactive) | > 100 µM (inactive) | > 100 µM (inactive) | > 100 µM (inactive) | > 100 µM (inactive) | > 100 µM (inactive) | > 100 µM (inactive) | – | – | –
14 | CC(C)N(C(=O)C12C3C4C1C1C4(C#N)C3C12C(=O)O)C(C)C (configuration not stated) | > 100 µM (inactive) | > 100 µM (inactive) | > 100 µM (inactive) | > 45.5 µM (inactive) | > 100 µM (inactive) | > 93.8 µM (inactive) | > 100 µM (inactive) | > 100 µM (inactive) | > 100 µM (inactive) | > 100 µM (inactive) | > 100 µM (inactive) | > 100 µM (inactive) | > 100 µM (inactive) | > 100 µM (inactive) | > 100 µM (inactive) | 16.8 µM (inactive) | > 100 µM (inactive) | – | – | –
15 | C[C@H]1[C@H](C)CC[C@]2(C(=O)O)CCC3(COC(=O)/C=C/c4ccc(O)cc4)C(=CCC4[C@@]5(C)CC[C@H](O)C(C)(C)C5CC[C@]43C)[C@H]12 (some centres not stated) | 4.06 µM (inactive) | 2.69 µM (inactive) | 3.99 µM (inactive) | 7.96 µM (inactive) | 3.46 µM (inactive) | 5.24 µM (inactive) | 11.2 µM (inactive) | 7.91 µM (inactive) | 5.96 µM (inactive) | 14.8 µM (inactive) | 4.17 µM (inactive) | 10.8 µM (inactive) | 19.1 µM (inactive) | 1.63 µM (inactive) | 5.68 µM (inactive) | 3.91 µM (inactive) | 9.4 µM (inactive) | – | – | –
16 | O=C1C(CO)=C[C@@H](O)[C@H]2O[C@@H]12 [EPOXYDON] | > 100 µM (inactive) | 90.2 µM (inactive) | > 100 µM (inactive) | 26 µM (inactive) | > 100 µM (inactive) | 23.1 µM (inactive) | > 100 µM (inactive) | > 100 µM (inactive) | 17.7 µM (inactive) | > 100 µM (inactive) | – | > 100 µM (inactive) | > 100 µM (inactive) | > 100 µM (inactive) | 18.4 µM (inactive) | > 100 µM (inactive) | > 100 µM (inactive) | 25.2 µM (inactive) | > 100 µM (inactive) | –
